Results as given in patent publication US8754040B2, “Cyclic peptide compound, method for producing same, anti-infective agent, antibiotic-containing fraction, antibiotic, method for producing antibiotic, antibiotic-producing microorganism, and antibiotic produced by same” (priority 2010, dated 2014).
Values after ≈ are worked out from the molar mass of the structure shown. Positions of bridges follow the written chain, without caps; N, C: chain ends. Non-standard residues stand in square brackets, D forms with d. Residues, ends and D or L forms follow the SMILES beside them. *: point of attachment. Hexanoyl(3-OH,5-Me) = CC(C)CC(O)CC(=O)*; dNMeF = CN[C@H](Cc1ccccc1)C(=O)O

Legend:
[1] = tested on: Staphylococcus aureus (MRSA3)
From the text: (§1) Antibacterial activity of the antibiotic-substance-containing fraction at each fractionation stage from a culture produced from RH2180-5 and that of the antibiotic substance obtained therefrom by separation and purification thereof can be evaluated by MIC. […] For example, it is done with a broth microdilution method based on CLSI (formerly NCCLS: National Committee for Clinical Laboratory Standards).
(§2) Antibacterial spectrum of the RH2180-5 Peak 5 Substance to various bacteria including MRSA and VRE was studied. In addition, influence of chemical resistance was also studied. For study of the latter, Staphylococcus aureus and Enterococcus faecalis were selected, wherein measurement of MIC value of each peak substance was made by a broth microdilution method based on CLSI (formerly NCCLS: National Committee for Clinical Laboratory Standards) as to Staphylococcus aureus not showing resistance to a chemical (hereinafter abbreviated as “MSSA 1”) and two kinds of MRSA showing resistance to many chemicals including methicillin (MRSA 3 and MRSA 4; see Table 3 for resistive chemicals) for Staphylococcus aureus; and as to Enterococcus faecalis not showing resistance to a chemical (hereinafter abbreviated as “EF 1”) and showing resistance to vancomycin (hereinafter abbreviated as “VRE”) for Enterococcus faecalis.
(§3) Test microorganisms of Staphylococcus aureus and Enterococcus faecalis, the same as Test Example 1, were selected; and measurement of MIC value of each peak substance was made by a broth microdilution method based on CLSI (formerly NCCLS: National Committee for Clinical Laboratory Standards) as to MSSA 1 and EF 1, and MRSA 3, MRSA 4, and VRE, the same as Test Example 1.
(§4) Antibacterial spectrum of the foregoing RH2180-5 Peak 5 Substance to various microorganisms including MRSA and VRE was studied. Each MIC value for the case added with 10% blood serum and for the case not added with the same was measured by a broth microdilution method based on CLSI (formerly NCCLS: National Committee for Clinical Laboratory Standards).

[2] = tested on: Enterococcus faecalis (EF1)
From the text: as §1, §2, §3, §4

[3] = tested on: Staphylococcus aureus (MRSA4)
From the text: as §1, §2, §3, §4

[4] = tested on: Staphylococcus aureus (MSSA1); conditions: MSSA1
From the text: as §1, §2, §3, §4

[5] = tested on: Enterococcus faecalis (VRE)
From the text: as §1, §2, §3, §4

Staphylococcus aureus [6] = assay: silkworm Staphylococcus aureus infection model (therapeutic effect); assay type: in vivo, silkworm (larva of Bombyx mori); conditions: purification stages, Table 2
From the text: In the present invention too, a first screening to narrow down effective strains from several tens of thousands of extraordinary large numbers of strains may be done by any method as far as the antibacterial activity can be evaluated with the said method; and thus, for example, by referring to MIC, test bodies showing the antibacterial activity to Staphylococcus aureus in culture supernatant of each strain may be picked up. This is because strains not showing the antibacterial activity at all are not in the scope of examination. Any method capable of evaluating the antibacterial activity may be used; but a method with which a strain recognized to show, with referring to MIC, the antibacterial activity to Staphylococcus aureus in culture supernatant of various test strains is picked up is preferable. […]
Strains recognized to show the therapeutic effect in the silkworm Staphylococcus aureus infection model are further subjected to various separation and purification treatments wherein the therapeutic effect is evaluated in each operation by using the silkworm Staphylococcus aureus infection model. […]

Staphylococcus aureus [7] = assay type: cell-based
Experimental: A soil taken from various places was suspended in a physiological saline solution, and then the supernatant thereof was applied on a GA medium and a HV medium; and after incubation at 30° C., grown bacteria was separated and then cultured in an YME medium, a SGM medium, or a CDY medium at 30° C. for 5 days. Equal amount of acetone was added thereinto; and after they were suspended and centrifugally separated, the resulting supernatant was evaporated. The residue thus resulted was diluted with a physiological saline solution, and then the antibacterial activity thereof to Staphylococcus aureus was evaluated by MIC with a broth microdilution method. As a result, antibacterial activity was found in culture supernatant of 3487 strains out of 14346 strains.

Staphylococcus aureus [8] = assay: survived cell numbers (CFU) of Staphylococcus aureus after drug addition; assay type: cell-based
Experimental: To CA-Mueller Hinton Broth medium were taken 1.8×10^8 Staphylococcus aureus, and then the foregoing RH2180-5 Peak 5 Substance (25 μg/mL), vancomycin (VM, 5 μg/mL), and gentamicin (GM, 2.5 μg/mL) were added thereinto; and then, survived cell numbers after 15 minutes, 30 minutes, 60 minutes, and 120 minutes were obtained as CFU (colony forming unit/mL).

[9] = tested on: Smith strain of Staphylococcus aureus; assay: mouse Staphylococcus aureus infection model (therapeutic effect); assay type: in vivo, mouse (ICR female); conditions: Staphylococcus aureus, ip
Experimental: Smith strain of Staphylococcus aureus was suspended in 7% mucin+0.2 mM ferric ammonium citrate, and 6.2×10^6 (20×LD50) thereof was administered into the peritoneal cavity of 5 mice per group (ICR female of four weeks of age). Each drug was injected hypodermically 2 hours after administration of the bacterium by the method shown below.
Similarly, ED50 of vancomycin to the mouse model used this time was studied. […] Here, ED50 values were obtained by the probit method.

Compound | MIC [1] [µg/mL] | MIC [2] [µg/mL] | MIC [3] [µg/mL] | MIC [4] [µg/mL] | MIC [5] [µg/mL] | further results
CC[C@H](C)[C@@H]1NC(=O)[C@@H](Cc2c[nH]c3ccccc23)NC(=O)[C@@H](CCC(N)=O)NC(=O)[C@H](CCC(=O)O)NC(=O)[C@@H](CCCNC(=N)N)NC(=O)[C@H](CC(C)C)NC(=O)[C@@H](Cc2ccccc2)NC(=O)CNC(=O)[C@H](CO)NC(=O)[C@@H](CCCNC(=N)N)NC(=O)[C@@H](NC(=O)CC(O)CCCC(C)C)[C@@H](C)OC(=O)[C@H]([C@@H](C)O)NC1=O (single isomer, unassigned) [Peak P3] | 25 (≈ 15.3 µM) | 50 (≈ 30.6 µM) | 25 (≈ 15.3 µM) | 25 (≈ 15.3 µM) | 50 (≈ 30.6 µM) | –
CC[C@H](C)[C@@H]1NC(=O)[C@@H](Cc2c[nH]c3ccccc23)NC(=O)[C@@H](CCC(N)=O)NC(=O)[C@H](CCC(=O)O)NC(=O)[C@@H](CCCNC(=N)N)NC(=O)[C@H](CC(C)C)NC(=O)[C@@H](Cc2ccccc2)NC(=O)CNC(=O)[C@H](CO)NC(=O)[C@@H](CCCNC(=N)N)NC(=O)[C@@H](NC(=O)CC(O)CCCC(C)C)[C@@H](C)OC(=O)[C@H]([C@@H](C)O)NC1=O (single isomer, unassigned) [Peak P4] | 25.0 (≈ 15.3 µM) | 50 (≈ 30.6 µM) | 12.5 (≈ 7.66 µM) | 12.5 (≈ 7.66 µM) | 25 (≈ 15.3 µM) | –
CC[C@H](C)[C@@H]1NC(=O)[C@@H](Cc2c[nH]c3ccccc23)NC(=O)[C@@H](CCC(N)=O)NC(=O)[C@H](CCC(=O)O)NC(=O)[C@@H](CCCNC(=N)N)NC(=O)[C@H](CC(C)C)NC(=O)[C@@H](Cc2ccccc2)N(C)C(=O)CNC(=O)[C@H](CO)NC(=O)[C@@H](CCCNC(=N)N)NC(=O)[C@@H](NC(=O)CC(O)CCC(C)C)[C@@H](C)OC(=O)[C@H]([C@@H](C)O)NC1=O (single isomer, unassigned) [Peak P7] | 12.5 (≈ 7.66 µM) | 50 (≈ 30.6 µM) | 12.5 (≈ 7.66 µM) | 12.5 (≈ 7.66 µM) | 25 (≈ 15.3 µM) | –
CC[C@H](C)[C@@H]1NC(=O)[C@@H](Cc2c[nH]c3ccccc23)NC(=O)[C@@H](CCC(N)=O)NC(=O)[C@H](CCC(=O)O)NC(=O)[C@@H](CCCNC(=N)N)NC(=O)[C@H](CC(C)C)NC(=O)[C@@H](Cc2ccccc2)N(C)C(=O)CNC(=O)[C@H](CO)NC(=O)[C@@H](CCCNC(=N)N)NC(=O)[C@@H](NC(=O)CC(O)CCCC(C)C)[C@@H](C)OC(=O)[C@H]([C@@H](C)O)NC1=O (single isomer, unassigned) [Peak P8] | 12.5 (≈ 7.59 µM) | 50 (≈ 30.4 µM) | 12.5 (≈ 7.59 µM) | 12.5 (≈ 7.59 µM) | 25 (≈ 15.2 µM) | –
CC[C@H](C)[C@@H]1NC(=O)[C@@H](Cc2c[nH]c3ccccc23)NC(=O)[C@@H](CCC(N)=O)NC(=O)[C@H](CCC(=O)O)NC(=O)[C@@H](CCCNC(=N)N)NC(=O)[C@H](CC(C)C)NC(=O)[C@@H](Cc2ccccc2)N(C)C(=O)CNC(=O)[C@H](CO)NC(=O)[C@@H](CCCNC(=N)N)NC(=O)[C@@H](NC(=O)CC(O)CCCC(C)C)[C@@H](C)OC(=O)[C@H]([C@@H](C)O)NC1=O (single isomer, unassigned) [Peak P9] | – | 12.5 (≈ 7.59 µM) | – | – | 12.5 (≈ 7.59 µM) | ED50 (Staphylococcus aureus [6]): 0.3 μg/g-larva; MIC (Staphylococcus aureus [7]): 5 µg/mL (≈ 3.04 µM)
CC(C)CC(O)CC(=O)N[C@@H]1C(=O)N[C@H](CCCNC(=N)N)C(=O)N[C@@H](CO)C(=O)NCC(=O)N(C)[C@H](Cc2ccccc2)C(=O)N[C@@H](CC(C)C)C(=O)N[C@H](CCCNC(=N)N)C(=O)N[C@@H](CCC(=O)O)C(=O)N[C@H](CCC(N)=O)C(=O)N[C@H](Cc2c[nH]c3ccccc23)C(=O)N[C@@H](C(C)C)C(=O)N[C@@H]([C@@H](C)O)C(=O)O[C@@H]1C (stereo partly drawn) [Peak P2] ({Hexanoyl(3-OH,5-Me)}-T[dR]SG[dNMeF]L[dR]E[dQ][dW]VT; ester 1-C) | 12.5 (≈ 7.79 µM) | 50 (≈ 31.2 µM) | 6.3 (≈ 3.93 µM) | 12.5 (≈ 7.79 µM) | 50 (≈ 31.2 µM) | –
CN[C@H](CC(C)C)C(=O)N[C@H]1C(=O)N[C@@H](CC(N)=O)C(=O)N[C@H]2C(=O)N[C@H]3C(=O)N[C@H](C(=O)N[C@H](C(=O)O)c4cc(O)cc(O)c4-c4cc3ccc4O)[C@H](O)c3ccc(c(Cl)c3)Oc3cc2cc(c3O[C@@H]2O[C@H](CO)[C@@H](O)[C@H](O)[C@H]2O[C@H]2C[C@](C)(N)[C@H](O)[C@H](C)O2)Oc2ccc(cc2Cl)[C@H]1O [Vancomycin] | – | – | – | – | – | CFU/ml of S. aureus (Staphylococcus aureus [8]; 5 μg/ml, 15 minutes): 8.5 × 10^7 CFU/ml; CFU/ml of S. aureus (Staphylococcus aureus [8]; 5 μg/ml, 30 minutes): 4.9 × 10^7 CFU/ml; CFU/ml of S. aureus (Staphylococcus aureus [8]; 5 μg/ml, 60 minutes): 6.8 × 10^7 CFU/ml; CFU/ml of S. aureus (Staphylococcus aureus [8]; 5 μg/ml, 120 minutes): 3.4 × 10^7 CFU/ml; ED50 [9]: 1.6 mg/kg
Gentamicin [GM] | – | – | – | – | – | CFU/ml of S. aureus (Staphylococcus aureus [8]; 2.5 μg/ml, 15 minutes): 2.6 × 10^7 CFU/ml; CFU/ml of S. aureus (Staphylococcus aureus [8]; 2.5 μg/ml, 30 minutes): 7.6 × 10^5 CFU/ml; CFU/ml of S. aureus (Staphylococcus aureus [8]; 2.5 μg/ml, 60 minutes): 1.6 × 10^5 CFU/ml; CFU/ml of S. aureus (Staphylococcus aureus [8]; 2.5 μg/ml, 120 minutes): 4.0 × 10^5 CFU/ml
